Assay results: ChEMBL document CHEMBL1132404, “2,4,6-triarylchalcogenopyrylium dyes related in structure to the antitumor agent AA1 as in vitro sensitizers for the photodynamic therapy of cancer” (J Med Chem, 1999)

How the values were obtained:
[1] = Partition coefficient (logP); assay type: physicochemical; details: octanol/water
[2] = (§1) The rate of hydrolysis as a function of time; assay type: functional
[3] = Inhibition of mitochondrial Cytochrome c Oxidase.; details: concentration not given here
[4] = as §1; assay type: ADME
[5] = tested on: R3230AC; assay: Cell viability was measured against R3230AC rat mammary adenocarcinoma cells at 10 uM concentration; assay type: functional

Question: For CN(C)c1ccc(-c2cc(-c3ccc(N(C)C)cc3)[se+]c(-c3ccc(N(C)C)cc3)c2)cc1, which logP [1] is on record?
Answer: 1.7

Question: What about the k1 [2] of the same compound?
Answer: 0.00024 s⁻¹

Question: What about the k2 [2] of the same compound?
Answer: 1.7e-05 s⁻¹

Question: And the inhibition [3]?
Answer: 0.78%

Question: Which results are given for CN(C)c1ccc(-c2cc(-c3ccc(N(C)C)cc3)[s+]c(-c3ccc(N(C)C)cc3)c2)cc1.[Cl-]?
Answer: logP [1]: 2.2; k1 [4]: 0.0001 s⁻¹; k2 [4]: 0.000022 s⁻¹; inhibition [3]: 0.82%

Question: With CN(C)c1ccc(-c2cc(-c3ccc(N(C)C)cc3)[te+]c(-c3ccc(N(C)C)cc3)c2)cc1.[Cl-] as the compound, how does the logP [1] read?
Answer: 2.3

Question: What about the k1 [2] of the same compound?
Answer: 0.00024 s⁻¹

Question: What about the k2 [2] of the same compound?
Answer: 1.1e-05 s⁻¹

Question: What about the inhibition [3] of the same compound?
Answer: 0.38%

Question: And the Cell viability [5]?
Answer: ~75%
